According to US5859037A, “Sulfonylurea-glitazone combinations for diabetes” (Warner-Lambert Company, priority 1997, dated 1999):

Tests used:
[1] = test system: lipid parameters (markers of lipid metabolism); assay: Fasting serum lipid profile in 52-week clinical study; format: in vivo, patients; settings: ITT, Week 52
Method: After an initial screening visit, patients meeting the inclusion criteria entered a 4-week baseline phase (unblinded) in which they received 12 mg micronized glyburide (6 mg BID).
Secondary efficacy parameters included markers of glycemic homeostasis (insulin and C-peptide) and markers of lipid metabolism (total cholesterol, total triglycerides, HDL, VLDL, LDL (measured), free fatty acids, Lp(a), Apo A1, and Apo B).
Efficacy analysis was performed on 2 patient populations, intent-to-treat and completers. […] Patients withdrawing from the study before Week 52 were included in the analysis using the LOCF procedure; the last measurement on treatment was substituted for the missing Week 52 measurement. The intent-to-treat patient sample was the primary sample for assessing efficacy. Completers comprised patients in the intent-to-treat sample who completed Week 52.
Summary statistics for baseline, follow-up (post-randomization), and change from baseline in secondary efficacy parameters were computed by treatment group and visit. For each patient, the baseline measurements for insulin, C-peptide, blood pressure, total cholesterol, triglycerides, LDL, HDL, VLDL, and free fatty acids were defined as the measurement at Week 0. In order to reduce variability, the baseline Apo A, Apo B, and Lp(a) levels were defined as the average of the respective measurements at Weeks -1 and 1. Similarly, the end-of-treatment Apo A, Apo B, and Lp(a) measurements were defined as the average of the respective measurements at Weeks 48 and 52. Averages from Weeks 20 and 24 were not carried forward for these special lipid parameters.
Fasting serum lipid profiles were determined at baseline and periodically through Week 52. Apo A1, Apo B, and Lp(a) were determined only at baseline, Month 6, and Month 12 as part of a special laboratory panel.

[2] = test system: non-insulin dependent diabetes mellitus (NIDDM); assay: Glycemic control (FSG, HbA1c, responders) in 52-week double-blind clinical study; format: in vivo, patients; settings: for Fasting Serum Glucose, Adjusted Mean Change From Baseline (SE) / Hemoglobin A1c, Adjusted Mean Change From Baseline (SE): glyburide monotherapy (active control)
Text: The method of treating diabetes employing a combination of a sulfonylurea and a glitazone has been established in a long-term controlled clinical evaluation. The study determined the efficacy and safety of troglitazone alone and in combination with the sulfonylurea glyburide for the treatment of non-insulin dependent diabetes mellitus (NIDDM). This study targeted the segment of the NIDDM population in which the disease state has progressed to a point where maximum doses of sulfonylureas no longer produce adequate glycemic control. […] Since the unstimulated (absence of sulfonylurea) insulin secretory capacity of the beta cells is very low in this population, reversing insulin resistance alone would be of partial benefit. Therefore, maintaining a level of stimulated insulin secretion with a sulfonylurea while adding troglitazone to improve insulin sensitivity could provide a level of glycemic control unattainable by either medication alone. […] Long-term safety was also an objective of this study, assessed by adverse events and clinical laboratory data. This was a 12-month, double-blind, randomized, parallel-group, active-control, multicenter study design (FIG. 1). […] The primary efficacy parameters included endpoints related to glucose homeostasis: FSG and HbA1c. The change from baseline in these parameters at Week 52 compared to active control (glyburide) was the primary measure of efficacy. For patients terminating early from the study, their last observation was carried forward (LOCF) to Week 52. A decrease in these parameters was indicative of an improvement in glycemic control. Efficacy analysis was performed on 2 patient populations, intent-to-treat and completers. […] Patients withdrawing from the study before Week 52 were included in the analysis using the LOCF procedure; the last measurement on treatment was substituted for the missing Week 52 measurement. The intent-to-treat patient sample was the primary sample for assessing efficacy. Completers comprised patients in the intent-to-treat sample who completed Week 52. The analysis of change from baseline to Week 52 was performed using analysis of covariance (ANCOVA). The primary model included effects due to treatment and center and baseline as covariate. Treatment-by-baseline and treatment-by-center interactions were also examined in supplemental models. For the primary comparisons of glyburide versus each combination, step-down tests for linear trend in dose response were performed based on the primary model. For the remaining primary pairwise comparisons of glyburide versus each monotherapy, t-tests were performed using the MSE from the analysis of covariance (with a Bonferroni-Holm adjustment). For all comparisons with glyburide, 95 confidence intervals are provided using Dunnett's test. […] For each patient, the baseline measurement for a given parameter was defined as the measurement at Week 0. […] The frequency distribution (number and percentage) of responders were provided by treatment group and visit. For the set of primary treatment comparisons concerning glyburide versus combination therapy, step-down comparisons of responders in each treatment group versus the glyburide group were performed by sequential application of the Cochran-Mantel-Haenszel (CMH) test for linear trend with study centers as strata. […] The CMH test for general association were also used to perform the secondary treatment comparisons as supplemental analysis.

[3] = glyburide monotherapy (active control)
[4] = ITT, Week 52, glyburide (active control)

Q: Which results are given for COc1ccc(Cl)cc1C(=O)NCCc1ccc(S(=O)(=O)NC(=O)NC2CCCCC2)cc1 [Glyburide]?
A: LDL Cholesterol, Change From Baseline, Mean ([1]; Glynase (active control)): 3.49 mg/dL; LDL Cholesterol, Change From Baseline, Median ([1]; Glynase (active control)): 4.00 mg/dL; Total Cholesterol, Change From Baseline, Mean ([1]; Glynase (active control)): 6.17 mg/dL; Total Cholesterol, Change From Baseline, Median ([1]; Glynase (active control)): 6.50 mg/dL; Apo A1, Change From Baseline, Mean [1, 3]: -1.1 mg/dL; Apo B, Change From Baseline, Mean [1, 3]: 2.9 mg/dL; Free Fatty Acids, Change From Baseline, Mean [1, 3]: -0.05 mEq/L; Free Fatty Acids, Change From Baseline, Median [1, 3]: 0.03 mEq/L; HDL Cholesterol, Change From Baseline, Mean [1, 3]: -0.15 mg/dL; HDL Cholesterol, Change From Baseline, Median [1, 3]: -1.00 mg/dL; LP(a), Change From Baseline, Mean [1, 3]: 1.4 mg/dL; Triglycerides, Change From Baseline, Mean [1, 3]: 14.24 mg/dL; Triglycerides, Change From Baseline, Median [1, 3]: 8.00 mg/dL; VLDL Cholesterol, Change From Baseline, Mean [1, 3]: -2.78 mg/dL; VLDL Cholesterol, Change From Baseline, Median [1, 3]: -1.00 mg/dL; Triglycerides, Change From Baseline, Mean ([1]; glyburide monotherapy (active control), listed as glyburide): 14 mg/dL; Fasting Serum Glucose, Adjusted Mean Change From Baseline (SE) ([2]; Completers, Week 52): 13.1 (8.6) mg/dL; Hemoglobin A1c, Adjusted Mean Change From Baseline (SE) ([2]; Completers, Week 52): 0.78 (0.27) %; Fasting Serum Glucose, Adjusted Mean Change From Baseline (SE) ([2]; ITT, Week 52 (Month 12)): 22.7 (6.9) mg/dL; ≥30 mg/dL Reduction in FSG, Responders, N (%) [2, 4]: 10 (13) N (%); ≥1% Reduction in HbA1c, Responders, N (%) [2, 4]: 4 (5) N (%); Hemoglobin A1c, Adjusted Mean Change From Baseline (SE) ([2]; ITT, Week 52): 0.90 (0.20) %; Hemoglobin A1c, Adjusted Mean Change From Baseline (SE) ([2]; ITT, Week 52, listed as glyburide): 0.90%; patients with HbA1c of ≤7% ([2]; Week 52, glyburide monotherapy): 1%; patients with HbA1c of ≤8% ([2]; end of study, glyburide (active control)): 10%
